The source of these data is patent US11110115B2, “Nucleic acid molecule with anti-inflammatory and anti-coagulant and organ-protective properties” (APTAHEM AB, priority 2017, dated 2021).

Assay [1] is described as follows: Tail bleeding model (bleeding time). Type of assay: in vivo, Sprague-Dawley rats. The conditions noted are these: SEQ ID NO:2 5, 20, 40 mg/kg i.v. 5 min before, Rivaroxaban 10 mg/kg PO 1 hour before, Warfarin 0.5 mg/kg IV. On the procedure:
A total of 36 Sprague-Dawley male and female rats were utilized and divided into six groups comprising of 6 animals per group. Animal handling was performed according to guidelines of the National Institute of Health and the Association for Assessment and Accreditation of Laboratory Animal Care. Animals were fed ad libitum a commercial rodent diet (Teklad Certified Global 18% Protein Diet cat #: 2018SC). Animals had free access to autoclaved and acidified drinking water (pH between 2.5 and 3.5) obtained from the municipality supply. Animals were housed under standard laboratory conditions, air conditioned and filtered with adequate fresh air supply. Animals were kept in a climate controlled environment.
SEQ ID NO:2 (Biospring) (100 mg) was dissolved in 5 ml saline to form a stock solution of 20 mg/ml. Vehicle (saline) was provided by Pharmaseed as ready to use for i.v. administration. Rivaroxaban (Bayer, Pharmaseed Ltd) dosing solution was diluted at 10 mg/kg (Group 2M). Warfarin (Ceriliant, Pharmaseed Ltd) was diluted at 0.5 mg/kg (Group 3M). Both Rivaroxaban and Warfarin are clinical standards with anticoagulation activity. To obtain SEQ ID NO:2 dosing solution (2.5 mg/ml) for dose level of 5 mg/kg and dose volume of 2 ml/kg for i.v. injection, 0.375 ml of the above 20 mg/ml stock solution was diluted with 2.625 ml of saline (Group 4M). To obtain SEQ ID NO:2 dosing solution (10 mg/ml) for dose level of 20 mg/kg and dose volume of 2 ml/kg for i.v. injection, 1.5 ml of the above 20 mg/ml stock solution was diluted with 1.5 ml saline (Group 5M). To obtain SEQ ID NO:2 dosing solution (20 mg/ml) for dose level of 40 mg/kg and dose volume of 2 ml/kg for i.v. injection, the above 20 mg/ml stock used (Group 6).
Rats were intravenously injected five minutes before bleeding time assay. […] Three treated groups received SEQ ID NO:2 at dose levels of 5, 20 and 40 mg/kg saline solution. In each gender, control groups received saline Vehicle. A positive control group received Rivaroxaban (10 mg/kg). Rivaroxaban was administered by oral gavage 1 hour before bleeding time assay. A second positive control groups received Warfarin (0.5 mg/kg).
Male and female rats were anaesthetized by intraperitoneal injection of ketamine/xylazine. Bleeding time was monitored as described in Stupnisek et al. (2012), until blood flow stopped for a complete 30-sec interval or till the end of 30 min period. In deeply anaesthetized rats (placed in ventral position) the tail was transected with a surgical scalpel 2 mm from the tip (and submerged into a tube with 40 ml of saline at room temperature in vertical position) and the duration and amount of bleeding was measured to evaluate the hemostatic effect of the agents or saline administration. Following the completion of bleeding time evaluation, all rats were immediately sacrificed by CO2 asphyxiation.
Numerical results were given as means±standard errors. If applicable, statistical analysis was carried out using one-way ANOVA followed by Dunnett's Multiple Comparison post Test. A probability of 5% (p≤0.05) was regarded as significant.

Assay [2] can be described thus: Activated partial thromboplastin time (APTT) in arteriovenous shunt model. Type of assay: in vivo, Sprague-Dawley male rats. The conditions noted are these: SEQ ID NO:2 33.3 mg/kg i.v. 5 min prior; Rivaroxaban 10 mg/kg p.o. 90 min prior.
A short description of assay [3]: Prothrombin time in arteriovenous shunt model. Conditions: SEQ ID NO:2 33.3 mg/kg i.v. 5 min prior; Rivaroxaban 10 mg/kg p.o. 90 min prior. Type of assay: in vivo, Sprague-Dawley male rats. On the procedure:
FIG. 2: Anti-coagulant activity of SEQ ID NO:2 in Arteriovenous Shunt model. Male rats were intravenously injected with saline (Vehicle) or SEQ ID NO:2 solution, according to their body weight. Rivaroxaban was orally administered to the positive control group. 5 to 90 minutes after administration, rats were anesthetized with pentobarbital-na (50 mg/kg). The left jugular vein and the right carotid artery of anesthetized rats were connected with two catheters. The thrombus weight formed on the thread was calculated by subtracting the average weight of the rough nylon thread (A). Prothrombin times were measured (B) and Activated partial thromboplastin times (APTT) were analysed (C). Each bar represents the mean±SEM (n=8 for vehicle and rivaroxaban groups, n=3 for SEQ ID NO:2 group), *p<0.05, **p<0.01, ***p<0.001 vs Vehicle.
The animals were assigned to 3 dosing groups according to the body weight (see table 2). Vehicle treated animals were intravenously injected with saline 90 min prior to shunt assay. The positive control treated animals were orally given Rivaroxaban 10 mg/kg at 90 min prior to shunt assay. SEQ ID NO:2 was intravenously injected 5 min prior to shunt assay.

Assay [4] in a line: Arteriovenous shunt model, thrombus weight. The format is in vivo, Sprague-Dawley male rats. The conditions noted are these: SEQ ID NO:2 33.3 mg/kg i.v. 5 min prior; Rivaroxaban 10 mg/kg p.o. 90 min prior; 15 min extracorporeal circulation. On the procedure:
This study was conducted at Shanghai WuXi AppTec Co., Ltd., and in accordance with WuXi IACUC standard animal procedures along with the IACUC guidelines that are in compliance with the Animal Welfare Act, the Guide for the Care and Use of Laboratory Animals, and the Office of Laboratory Animal Welfare (OLAW). Sprague-Dawley male rats with body weight ranging between 150-200 g (Vital River; Bejing, P.R. China) were fed ad libitum a rodent diet. Animals had free access to autoclaved and acidified drinking water. Animals were housed under standard laboratory conditions, air conditioned and filtered with adequate fresh air supply. Animals were kept in a climate controlled environment. Rivaroxaban (10 mg/kg) has been dissolved in water and stored at 4° C. 20 mg SEQ ID NO:2 (Biospring) was dissolved in 3 ml Saline, vortexed for 5 min., sonicated with a water bath ultrasonic for 1 minute to achieve 6.66 mg/ml SEQ ID NO:2. The animals were assigned to 3 dosing groups according to the body weight (see table 2). […] Extracorporeal circulation was maintained for 15 min, the thrombus weight formed on the thread was calculated by subtracting the average weight of the rough nylon thread. Significance of difference between control and treated groups was analyzed by performing analysis of variance (ANOVA) by EXCEL office software.

Take `O=C(NC[C@H]1CN(c2ccc(N3CCOCC3=O)cc2)C(=O)O1)c1ccc(Cl)s1` [Rivaroxaban, reference compound]: the “group average bleeding time compared to matched vehicle group” value in assay [1] (female rats) and in assay [1] (male rats) was “increased significantly” throughout. Moreover, the “Activated Partial Thromboplastin Time (APTT) compared to vehicle group” value in assay [2] is “did not show any different”. The “Prothrombin times compared to vehicle group” value in assay [3] is recorded as “significantly prolonged”. Besides, the “thrombus weight, less than vehicle group” value in assay [4] turned out to be 26.5%.

On to `CC(=O)CC(c1ccccc1)c1c(O)c2ccccc2oc1=O` (stereo not shown) [Warfarin, reference compound], for which the “group average bleeding time compared to matched vehicle group” value in assay [1] (female rats) and in assay [1] (male rats) was “increased significantly” in each case.
